From patent US20190262404A1, “PHARMACEUTICAL COMPOSITION FOR PREVENTING OR TREATING IMMUNE DISEASE OR INFLAMMATORY DISEASE INCLUDING INFLAMMATORY STIMULATED MESENCHYMAL STEM CELL” (SCM LIFESCIENCE CO., LTD., priority 2016, published 2019)
Read-outs that look alike come from different tables or passages of the source.

How the values were obtained:
Format in all cases: cell-based, human
[1] = test system: MLR-activated PBMCs; assay: ELISA of proinflammatory cytokines, MSCs co-cultured with MLR-activated PBMCs, medium with nAChR antagonist or agonist
Method: (§1) The medium was harvested from nAChR antagonist or agonist-containing co-culture experiments. The secreted proinflammatory cytokines were quantified using the ELISA kits for TNF-α (BD Biosciences; cat. #555212) and IFN-γ (BD Biosciences; cat. #555141). The medium in which MLR- or PHA-activated PBMCs were cultured was used to carry out the assay for NGF (R&D Systems, Minneapolis, Minn., USA; cat. # DY256-05) and BDNF (R&D Systems; cat. # DBD00).
(§2) α-Bungarotoxin (EMD Millipore; cat. #203980), an nAChRα7 antagonist, was added to the medium at the concentration of […]. As cholinergic agonists, ACh chloride (Sigma; cat. # A6625) and carbachol (EMD Millipore; cat. #212385) were used at the concentrations of 1 nM and 10 pM, respectively, and the experiments were conducted.
(§3) In order to confirm ACh-nAChR pathway mechanism of MSCs under the inflammatory conditions, experiments were performed according to the methods described in Experimental Examples 1-2 and 1-10. The mixed lymphocyte reaction (MLR) condition was set such that PBMCs obtained from different donors were cultured together, and the phytohemagglutinin (PHA) treatment condition was set such that PBMCs were treated with PHA. According to inflammatory conditions, each PBMCs only group (P and Po) obtained from different donors; MSCs group co-cultured in mixed lymphocyte reaction (MLR) condition (MSC in MLR); mixed lymphocyte reaction condition group without MSCs (MLR); or MSCs group co-cultured in phytohemagglutinin (PHA) treatment condition (MSC in P^PHA) were placed. A cholinergic antagonist such as α-bungarotoxin (α-BTX, an antagonist of nAChRα7); a cholinergic agonist such as ACh chloride (ACh-Cl, an agonist of AChR); or a non-specific cholinergic agonist such as carbachol was added to the medium, and the activity of TNF-α and IFN-γ of MSCs by each inflammatory condition was confirmed. The results are illustrated in FIG. 14.

[2] = test system: PHA-activated PBMCs; assay: ELISA of proinflammatory cytokines, MSCs co-cultured with PHA-activated PBMCs, medium with nAChR antagonist or agonist
Method: as §1, §2, §3

[3] = test system: MLR- or PHA-activated PBMCs; assay: MSCs co-cultured with MLR- or PHA-activated PBMCs in medium supplemented with carbachol; conditions: carbachol 10 pM added to MSCs culture medium under the inflammatory condition (FIGS. 15A to 15D)
[4] = MSCs + MLR-activated PBMCs, α-BTX 1 M or ACh-Cl 1 nM added to the medium
[5] = MSCs + PHA-activated PBMCs, α-BTX 1 M or ACh-Cl 1 nM added to the medium

Compound: CC(=O)OCC[N+](C)(C)C.[Cl-] [ACh-Cl, ACh chloride]
- IFN-γ [1, 4]: significantly inhibited
- TNF-α [1, 4]: significantly inhibited
- IFN-γ [2, 5]: significantly inhibited
- TNF-α [2, 5]: significantly inhibited

Compound: C[N+](C)(C)CCOC(N)=O [carbachol]
- inflammatory cytokine release [3]: inhibited
- lymphocyte proliferation [3]: inhibited the lymphocyte proliferation

Compound: α-Bungarotoxin [α-BTX]
- IFN-γ [1]: activated again
- TNF-α [1]: activated again
- IFN-γ [2]: activated again
- TNF-α [2]: activated again
